Here are results for 12 molecules from US9845291B2, “Estrogen receptor modulators and uses thereof” (Genentech, Inc., priority 2014, dated 2017).

Usually pEC50 stands for the negative decadic logarithm of the EC50, by convention in mol/L. Read a low pEC50 as a high EC50.

pEC50: −log10 of the molar value.

The target in this test is estrogen receptor alpha (ESR1) (Homo sapiens, UniProt P03372). The experiment in a line: cell-based. Conditions: for ER-alpha MCF7 HCS Sinf: MCF7 breast cancer cells, 4 hours, plateau of the maximal effect, DMSO and Fulvestrant define 0% and 100% changes in ESR1. On the procedure:
Where more than one name is associated with a Formula I compound or intermediate, the chemical structure shall define the compound.
Cell plates were incubated at 37° C., for 4 hours. Fixation and permeabilization were carried out using a Biotek EL406 plate washer and dispenser as follows. […] Samples were incubated 30 minutes. Well contents was aspirated and 50 ul/well of Phosphate Buffered Saline (PBS) containing 0.5% w/v bovine serum albumen, 0.5% v/v Triton X-100 (Antibody Dilution Buffer) was added to each well. Samples were incubated for 30 minutes. Well contents were aspirated and washed 3 times with 100 ul/well of PBS. Immunofluorescence staining of estrogen receptor alpha (ESR1) was carried out using a Biotek EL406 plate washer and dispenser as follows. […] Samples were incubated for 2 hours at room temperature. Samples were washed 4 times with 100 ul/well of PBS. […] Samples were incubated for 2 hours at room temperature. Samples were washed 3 times with 100 ul/well of PBS using a Biotek EL406. Quantitative fluorescence imaging of ESR1 was carried out using a Cellomics Arrayscan V (Thermo). […] Channel 1 (DNA stain) was used to define the nuclear region (Circ). […] Data analysis was carried out using Genedata Screener Software, with DMSO and 5 nM Fulvestrant treated samples being used to define the 0% and 100% changes in ESR1. The “Robust Fit” method was used to define the inflexion point of curve (EC50) and the plateau of the maximal effect (Sin f).

Sequence of estrogen receptor alpha (ESR1) (P03372 whole entry): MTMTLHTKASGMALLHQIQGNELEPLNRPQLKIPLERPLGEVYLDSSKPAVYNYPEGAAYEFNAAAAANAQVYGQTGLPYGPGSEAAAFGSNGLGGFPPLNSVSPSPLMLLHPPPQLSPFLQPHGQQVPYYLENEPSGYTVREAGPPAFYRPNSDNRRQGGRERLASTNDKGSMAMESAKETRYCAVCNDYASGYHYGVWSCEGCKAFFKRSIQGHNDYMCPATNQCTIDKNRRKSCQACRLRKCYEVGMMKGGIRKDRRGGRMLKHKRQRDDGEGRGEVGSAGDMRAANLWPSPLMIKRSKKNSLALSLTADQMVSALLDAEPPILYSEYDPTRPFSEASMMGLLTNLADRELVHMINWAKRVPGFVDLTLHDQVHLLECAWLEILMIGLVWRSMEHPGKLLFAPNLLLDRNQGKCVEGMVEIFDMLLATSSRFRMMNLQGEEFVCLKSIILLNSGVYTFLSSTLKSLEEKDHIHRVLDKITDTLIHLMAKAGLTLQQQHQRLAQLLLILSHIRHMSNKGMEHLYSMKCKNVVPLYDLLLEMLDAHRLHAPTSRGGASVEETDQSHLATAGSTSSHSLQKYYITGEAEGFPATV

For `Oc1cccc([C@@H]2Sc3c(ccc(O)c3F)O[C@@H]2c2ccc(OCCN3CC(CF)C3)cc2)c1` [Example 60, (2R,3S)-5-fluoro-2-(4-(2-(3-(fluoromethyl)azetidin-1-yl)ethoxy)phenyl)-3-(3-hydroxyphenyl)-2,3-dihydrobenzo[b][1,4]oxathiin-6-ol], the negative logarithm of the EC50 (pEC50) is 7.80 and the “ER-alpha MCF7 HCS Sinf” value is −91.9%.

As for `C[C@@H](COc1ccc(Oc2c(-c3ccc(S(C)(=O)=O)cc3)ccc3cc(O)ccc23)cc1)N1CC[C@@H](CF)C1` [Example 66, 5-[4-[(2S)-2-[(3R)-3-(fluoromethyl)pyrrolidin-1-yl]propoxy]phenoxy]-6-(4-methylsulfonylphenyl) naphthalen-2-ol], the pEC50 was 11.22 and the “ER-alpha MCF7 HCS Sinf” value is −93.4%.

In the case of `CS(=O)(=O)c1ccc(-c2ccc3cc(O)ccc3c2C(=O)c2ccc(OCCN3CC[C@@H](CF)C3)cc2)cc1` [Example 67, [4-[2-[(3R)-3-(fluoromethyl)pyrrolidin-1-yl]ethoxy]phenyl]-[6-hydroxy-2-(4-methylsulfonylphenyl)-1-naphthyl]methanone], the pEC50 was 9.38 and the “ER-alpha MCF7 HCS Sinf” value was −97.6%.

`O=C(c1ccc(OCCN2CC(CF)C2)c(F)c1)c1c(-c2ccccc2Cl)nsc1-c1ccc(O)cc1` [Example 72, [3-(2-Chloro-phenyl)-5-(4-hydroxy-phenyl)-isothiazol-4-yl]-{3-fluoro-4-[2-(3-fluoromethyl-azetidin-1-yl)-ethoxy]-phenyl}-methanone]: the pEC50 is 10.80 and the “ER-alpha MCF7 HCS Sinf” value was −99.0%.

With `O=C(c1ccc(OCCN2CC[C@@H](CF)C2)c(F)c1)c1c(-c2ccccc2Cl)noc1-c1ccc(O)cc1` [Example 73, [3-(2-chlorophenyl)-5-(4-hydroxyphenyl)isoxazol-4-yl]-[3-fluoro-4-[2-[(3R)-3-(fluoromethyl)pyrrolidin-1-yl]ethoxy]phenyl]methanone], the pEC50 was 9.91 and the “ER-alpha MCF7 HCS Sinf” value is listed as −97.6%.

Turning to `Oc1ccc2c(c1)C1=C(c3cc(O)ccc3OCC1)[C@H](c1ccc(OCCN3CC(CF)C3)cc1)O2` [Example 74, (S)-8-(4-(2-(3-(fluoromethyl)azetidin-1-yl)ethoxy)phenyl)-1,8-dihydro-2H-benzo[2,3]oxepino[4,5-c]chromene-6,12-diol], the pEC50 is 9.72 and the “ER-alpha MCF7 HCS Sinf” value was −93.3%.

On to `Oc1ccc2c(c1)C1=C(c3cc(O)ccc3OCC1)[C@@H](c1ccc(OCCN3CC(CF)C3)cc1)O2` [Example 75, (R)-8-(4-(2-(3-(fluoromethyl)azetidin-1-yl)ethoxy)phenyl)-1,8-dihydro-2H-benzo[2,3]oxepino[4,5-c]chromene-6,12-diol], for which the negative-log EC50 (pEC50) was 8.49 and the “ER-alpha MCF7 HCS Sinf” value is on record as −99.7%.

For `C[C@@H](COc1ccc(C(=O)c2c(-c3ccccc3Cl)noc2-c2ccc(O)cc2)cc1F)N1CC[C@@H](CF)C1` [Example 76, [3-(2-chlorophenyl)-5-(4-hydroxyphenyl)isoxazol-4-yl]-[3-fluoro-4-[(2S)-2-[(3R)-3-(fluoromethyl)pyrrolidin-1-yl]propoxy]phenyl]methanone], the pEC50 is 10.04 and the “ER-alpha MCF7 HCS Sinf” value is listed as −101%.

As for `Oc1ccc2c(c1)O[C@H](c1ccc(OCCN3CC(CF)C3)cc1)C1=C2CCOc2ccc(O)cc21` [Example 77, (R)-8-(4-(2-(3-(fluoromethyl)azetidin-1-yl)ethoxy)phenyl)-2,8-dihydro-1H-benzo[2,3]oxepino[4,5-c]chromene-6,11-diol], the pEC50 is 8.02 and the “ER-alpha MCF7 HCS Sinf” value is listed as −84.5%.

Regarding `Oc1ccc2c(c1)O[C@@H](c1ccc(OCCN3CC(CF)C3)cc1)C1=C2CCOc2ccc(O)cc21` [Example 78, (S)-8-(4-(2-(3-(fluoromethyl)azetidin-1-yl)ethoxy)phenyl)-2,8-dihydro-1H-benzo[2,3]oxepino[4,5-c]chromene-6,11-diol], the pEC50 was 9.21 and the “ER-alpha MCF7 HCS Sinf” value was −90.0%.

As to `CS(=O)(=O)c1ccc(-c2ccc3c(F)c(O)ccc3c2Oc2ccc(OCCN3CC[C@@H](CF)C3)cc2)cc1` [Example 79, (R)-1-fluoro-5-(4-(2-(3-(fluoromethyl)pyrrolidin-1-yl)ethoxy)phenoxy)-6-(4-(methylsulfonyl)phenyl) naphthalen-2-ol], the pEC50 is 10.14 and the “ER-alpha MCF7 HCS Sinf” value was −89.6%.

For the molecule `CC/C(=C(/c1ccc(OCCN2CC(CF)C2)cc1)c1ccc2[nH]ncc2c1)c1ccc(F)cc1Cl` [Example 82, 5-[(E)-2-(2-chloro-4-fluoro-phenyl)-1-[4-[2-[3-(fluoromethyl)azetidin-1-yl]ethoxy]phenyl]but-1-enyl]-1H-indazole], the pEC50 was 10.65 and the “ER-alpha MCF7 HCS Sinf” value was −96.9%.
